Values quoted from earlier work, collected in PMC10289903 (Investigational New Drugs, 2023).

Tested on: platinum-resistant or platinum-refractory recurrent ovarian cancer
Details: placebo plus gemcitabine arm; 95% CI 1.8–3.8; cited from earlier work

Structure (SMILES): Nc1ccn([C@@H]2O[C@H](CO)[C@@H](O)C2(F)F)c(=O)n1 [gemcitabine, reference compound]
- PFS: 3.0 months
